From patent US20250339426A1, “GCN2 MODULATOR FOR TREATING CANCER” (HIBERCELL, INC., priority 2022, published 2025)

Columns and labels:
[1] = test system: NCI-H1975 (human non-small cell lung cancer cells); test: In vivo tumor growth inhibition, NCI-H1975 xenograft; parameters: species or system Athymic Nude-Foxn1nu mice
Method: NCI-H1975 (human non-small cell lung cancer cells): Female 7-8 weeks old Athymic Nude-Foxn1nu mice were inoculated subcutaneously on the right flank with NCI-H1975 tumor cells (2.5×10^6) in 0.1 ml of RPMI1640 medium without serum for tumor development. Single agent HC-7366 was dosed at 3 mg/kg, osimertinib at 2.5 mg/kg and dacomitinib at 15 mg/kg. HC-7366 was combined with either osimertinib or dacomitinib. The vehicle for the groups was 0.5% methyl cellulose. The treatments were started when the mean tumor size reached approximately 205 mm^3 at Day 22 post inoculation and continued until end of study. HC-7366 was given twice daily by oral gavage whereas osimertinib or dacomitinib were administered once a day by oral gavage (FIGS. 131 and 133).
(§1) [formula] • 2.2.2 Tumor Measurements: The measurement of tumor size was conducted three times weekly with a caliper and recorded. The tumor volume (mm^3) was estimated using the formula: TV=a×b^2/2, where “a” and “b” is long and short diameters of a tumor, respectively. Tumor volume was calculated using the formula [tumor volume (mm^3)=π/6×length×width^2).
(§2) Regression was calculated using the formula=100×ΔT/T initial, if ΔT<0. Animals with 0 mm^3 tumor volume (no measurable tumor) for three consecutive measurements were considered as complete responders and animals with 50% tumor regressions were partial responders.

[2] = test system: 786-O (human renal cell carcinoma cancer cells); test: In vivo tumor growth inhibition, 786-O xenograft; parameters: species or system BALB/c nude mice; conditions: PT-2977 single agent, 0.1 mg/kg twice a day oral
Method: 786-O (human renal cell carcinoma cancer cells): Female 6-8 weeks old BALB/c nude mice were inoculated subcutaneously on the right flank with 786-O tumor cells (5×10^6) in 0.1 ml of RPMI1640 medium without serum for tumor development. […] For the DC101 combination study, DC101 (murine monoclonal anti-VEGFR2 antibody) was dosed at 15 mg/kg twice a week by intraperitoneal injection.
as §1, §2
Female 6-8 weeks old BALB/c nude mice were inoculated subcutaneously on the right flank with 786-O tumor cells (5×10^6) in 0.1 ml of RPMI1640 medium without serum for tumor development (see Example 6). […]

[3] = test system: MFE280 (human endometrial cancer cells); test: In vivo tumor growth inhibition, MFE280 xenograft; parameters: species or system Athymic Nude-Foxn1nu mice; conditions: PT2977 1 mg/kg twice daily oral
[4] = test system: GCN2 pathway (p-GCN2, ATF4) in HT1080 cells; test: Western blot analysis of HT1080 cell lysates; format: cell-based, human; conditions: 100 nM Halofuginone
Method: The HT1080 cells were harvested and counted and diluted to the desired density. 2 mL of cell suspension was added into each well of 6-well cell culture plate. The plates were transferred into 37° C., 5% CO2 incubator overnight. The cells were treated as described above. The media was aspirated, and cells were washed with ice cold phosphate buffered saline (PBS). Ice cold 1× radioimmunoprecipitation assay (RIPA) lysis buffer supplemented with protease and phosphatase inhibitors was added to the cell pellets, on ice. After 30 min on ice the cell lysates were centrifuged at 4° C., 12,000 rpm for 15 minutes and the supernatant collected. Protein concentration was determined using BCA kit. The cell lysates were mixed with 5× sodium dodecyl sulfate (SDS) loading buffer and denatured at 95° C. for 5 minutes. […] After the electrophoresis was completed, the separated protein was transferred to a nitrocellulose membrane using transblot system for 90 min, 300 mA, then the membrane was blocked with (tris-buffered saline) TBS buffer (5% bovine serum albumin (BSA)) for 1 hr at room temperature. The membrane was exposed to the primary antibodies overnight in cold room in TBS buffer (1% BSA). The membrane was then washed with TBS-Tween for 3×10 min at R/T, incubated with secondary antibodies in TBS buffer (1% BSA) for 1 hr at RT. The membrane was washed with TBS-Tween for 3×10 min at R/T and the imaging was acquired with Li—COR imaging system.

[5] = test system: DLD-1 (human colorectal cancer cells); test: In vivo tumor growth inhibition, DLD-1 xenograft; parameters: species or system BALB/c nude mice; conditions: 5-fluorouracil 75 mg/kg once a week intravenous
Method: DLD-1 (human colorectal cancer cells): Female 6-8 weeks old BALB/c nude mice were inoculated subcutaneously on the right flank with DLD-1 tumor cells (5×10^6) in 0.1 ml of RPMI1640 medium without serum for tumor development. The treatments were started when the mean tumor size reached approximately 195 mm^3 at Day 7 post inoculation and continued until end of study by twice daily oral gavage dosing of HC-7366 at listed doses (vehicle, 0.3 mg/kg HC-7366, 1 mg/kg HC-7366, 3 mg/kg HC-7366, 10 mg/kg HC-7366, or 30 mg/kg HC-7366, FIG. 10). For the time course study, tumors were harvested at Days 4, 7 and 14. Tumors were then used for IHC and RNAseq experiments (see Example 21).
as §1, §2
(§3) The effect of DC101 in combination with HC-7366 in DLD-1 tumor-bearing mice was evaluated using protocols analogous to those described in Example 6. Mice were treated with 3 or 30 mg/kg HC-7366, twice daily by oral gavage. DC101 was administered at 20 mg/kg twice weekly and with twice daily dosing via intraperitoneal injection.
as §3, with “5-fluorouracil” for “DC101”, “75” for “20”, “once a week,” for “twice weekly and with”, “daily” for “daily dosing”, “intravenous” for “intraperitoneal”

[6] = test system: MV4-11 (human AML cancer cells); test: In vivo tumor growth inhibition, MV4-11 xenograft; parameters: species or system BALB/c nude mice; conditions: venetoclax monotherapy, 50 mg/kg once daily
Method: MV4-11 (human AML cancer cells): Female 6-8 weeks old BALB/c nude mice were inoculated subcutaneously on the right flank with MV4-11 tumor cells (1×10^7) in RPMI 1640 without serum for tumor development. The treatments were started when the mean tumor size reached approximately 150 mm^3 at Day 13 after cell inoculation and continued until end of study by twice daily oral gavage dosing of HC-7366 at listed doses (vehicle, 0.3 mg/kg HC-7366, 1 mg/kg HC-7366, 3 mg/kg HC-7366, 10 mg/kg HC-7366, or 30 mg/kg HC-7366, FIG. 20). For venetoclax combination study, venetoclax was dissolved in 0.5% carboxymethylcellulose (CMC) and co-administered at 50 mg/kg dose once daily (see Example 8).
as §1, §2
MV4-11 tumors were collected at the end of the venetoclax combination study described in Example 6. Tumor growth curves are provided of MV4-11 tumors treated with single agent HC-7366 and venetoclax or combination (FIG. 43).

## C=CC(=O)Nc1cc(Nc2nccc(-c3cn(C)c4ccccc34)n2)c(OC)cc1N(C)CCN(C)C [osimertinib]
[1]; 50% tumor regressions, doses as in study
  partial response (animals/group): 1/10
[1]; osimertinib 2.5 mg/kg once a day oral
  TGI: 95%

## CS(=O)(=O)c1ccc(Oc2cc(F)cc(C#N)c2)c2c1[C@H](O)[C@H](F)[C@@H]2F [PT-2977, belzutifan, reference compound]
[2]
  TGI %: ~70%
[3]
  tumor growth inhibition: 53%

## COc1cc2ncnc(Nc3ccc(F)c(Cl)c3)c2cc1NC(=O)/C=C/CN1CCCCC1 [dacomitinib]
[1]; dacomitinib alone 15 mg/kg once a day, end of the study, without statistical significance
  TGI %: 36%

## O=C(CC1NCCCC1O)Cn1cnc2cc(Br)c(Cl)cc2c1=O (centres unmarked) [halofuginone, reference compound]
[4]
  GCN2 and ATF4 in cells treated with halofuginone: activation of GCN2 and ATF4

## O=c1[nH]cc(F)c(=O)[nH]1 [5-fluorouracil, reference compound]
[5]
  TGI %: ~68%

## CC1(C)CCC(CN2CCN(c3ccc(C(=O)NS(=O)(=O)c4ccc(NCC5CCOCC5)c([N+](=O)[O-])c4)c(Oc4cnc5[nH]ccc5c4)c3)CC2)=C(c2ccc(Cl)cc2)C1 [venetoclax, reference compound]
[6]
  TGI: 62%
